The target of assay [1] is T1, human N-type Ca channel (Homo sapiens, UniProt Q00975). Kind of assay: Calcium influx assay (FDSS), KCl depolarization, Fluo8 dye. More on the design: host or cells: HEK 293. Format: cell-based. In outline:
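HEK293 cells stably expressing the human N-type Ca channel were loaded with Fluo8 and washed in choline-based buffer (pH 7.2, 2 mM CaCl2, 2 mM KCl). Cells were preincubated with serially diluted compound for 15 min in the dark. Ca influx was then recorded by fluorescence after depolarization with 100 mM KCl.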

The target of assay [2] is T1, human N-type Ca channel. The assay is described as follows: Electrophysiological response, QPatch (depolarization -80 mV to +20 mV). For orientation: Patch clamp records ionic current or voltage across a cell membrane.
Experimental: The recombinant cell line described above was used in the measurement of electrophysiological properties with QPatch (Sophion). Cells were maintained in culture as mentioned above. Prior to the experiment, the flasks were moved to 30 °C and incubated for 48-72 hrs. On the day of assaying, cells were detached and harvested. The cell pellet was re-suspended in SMF4HEK (HyClone)/25mM HEPS at 2-5 million/ mL and placed on the QStirrer of the QPatch for 30-60 min prior to the start of the assay. […] Microtiter-Plate/Reference Buffer contained 140 mM TEA-Cl, 10mM BaCl2, 0.8 mM MgCl2, 10 mM HEPES pH ∼7.4 adjusted with TEA-OH/HCl, and ∼300mOsm. Cells were transferred to a QPatch 48 plate and gigaseal was formed. The plate was perfused with intracellular and extracellular buffer. […] In brief, cells were depolarized from resting potential of -80 mV to +20 mV and current was recorded. Data was plotted as percent inhibition vs concentration of the compound and IC50 values were generated using Graphpad Prism non-linear regression analysis.
Where [3] appears, read: HEK 293 cells expressing human N-type Ca channel, 100 mM KCl, read-out: N Type IC50 Data FDSS.
The mark [4] stands for this setting: read-out: Qpatch Pulse=1 (percent inhibition).
Where [5] appears, read: read-out: Qpatch Pulse=15 (percent inhibition).
The mark [6] stands for this setting: N Type IC50 Data Qpatch Pulse=1, Pulse=1, concentration range 0.01-1 µM.
The mark [7] stands for this setting: N Type IC50 Data Qpatch Pulse=15, Pulse=15, concentration range 0.01-1 µM.
[8] abbreviates: N Type IC50 Data Qpatch Pulse=1, Pulse=1, concentration range 0.3-10 µM.
The mark [9] stands for this setting: N Type IC50 Data Qpatch Pulse=15, Pulse=15, concentration range 0.3-10 µM.
Setting [10] is: read-out: N Type IC50 Data Qpatch Pulse=1, Pulse=1, concentration range 0.01-1 µM.
Setting [11] is: read-out: N Type IC50 Data Qpatch Pulse=15, Pulse=15, concentration range 0.01-1 µM.

Read-outs that look alike come from different tables or passages of the source.

The term IC50 denotes the midpoint of a concentration-inhibition curve. As usually defined, the inhibition is the drop in the measured response relative to a control, in per cent.

T1 sequence (Q00975 whole entry): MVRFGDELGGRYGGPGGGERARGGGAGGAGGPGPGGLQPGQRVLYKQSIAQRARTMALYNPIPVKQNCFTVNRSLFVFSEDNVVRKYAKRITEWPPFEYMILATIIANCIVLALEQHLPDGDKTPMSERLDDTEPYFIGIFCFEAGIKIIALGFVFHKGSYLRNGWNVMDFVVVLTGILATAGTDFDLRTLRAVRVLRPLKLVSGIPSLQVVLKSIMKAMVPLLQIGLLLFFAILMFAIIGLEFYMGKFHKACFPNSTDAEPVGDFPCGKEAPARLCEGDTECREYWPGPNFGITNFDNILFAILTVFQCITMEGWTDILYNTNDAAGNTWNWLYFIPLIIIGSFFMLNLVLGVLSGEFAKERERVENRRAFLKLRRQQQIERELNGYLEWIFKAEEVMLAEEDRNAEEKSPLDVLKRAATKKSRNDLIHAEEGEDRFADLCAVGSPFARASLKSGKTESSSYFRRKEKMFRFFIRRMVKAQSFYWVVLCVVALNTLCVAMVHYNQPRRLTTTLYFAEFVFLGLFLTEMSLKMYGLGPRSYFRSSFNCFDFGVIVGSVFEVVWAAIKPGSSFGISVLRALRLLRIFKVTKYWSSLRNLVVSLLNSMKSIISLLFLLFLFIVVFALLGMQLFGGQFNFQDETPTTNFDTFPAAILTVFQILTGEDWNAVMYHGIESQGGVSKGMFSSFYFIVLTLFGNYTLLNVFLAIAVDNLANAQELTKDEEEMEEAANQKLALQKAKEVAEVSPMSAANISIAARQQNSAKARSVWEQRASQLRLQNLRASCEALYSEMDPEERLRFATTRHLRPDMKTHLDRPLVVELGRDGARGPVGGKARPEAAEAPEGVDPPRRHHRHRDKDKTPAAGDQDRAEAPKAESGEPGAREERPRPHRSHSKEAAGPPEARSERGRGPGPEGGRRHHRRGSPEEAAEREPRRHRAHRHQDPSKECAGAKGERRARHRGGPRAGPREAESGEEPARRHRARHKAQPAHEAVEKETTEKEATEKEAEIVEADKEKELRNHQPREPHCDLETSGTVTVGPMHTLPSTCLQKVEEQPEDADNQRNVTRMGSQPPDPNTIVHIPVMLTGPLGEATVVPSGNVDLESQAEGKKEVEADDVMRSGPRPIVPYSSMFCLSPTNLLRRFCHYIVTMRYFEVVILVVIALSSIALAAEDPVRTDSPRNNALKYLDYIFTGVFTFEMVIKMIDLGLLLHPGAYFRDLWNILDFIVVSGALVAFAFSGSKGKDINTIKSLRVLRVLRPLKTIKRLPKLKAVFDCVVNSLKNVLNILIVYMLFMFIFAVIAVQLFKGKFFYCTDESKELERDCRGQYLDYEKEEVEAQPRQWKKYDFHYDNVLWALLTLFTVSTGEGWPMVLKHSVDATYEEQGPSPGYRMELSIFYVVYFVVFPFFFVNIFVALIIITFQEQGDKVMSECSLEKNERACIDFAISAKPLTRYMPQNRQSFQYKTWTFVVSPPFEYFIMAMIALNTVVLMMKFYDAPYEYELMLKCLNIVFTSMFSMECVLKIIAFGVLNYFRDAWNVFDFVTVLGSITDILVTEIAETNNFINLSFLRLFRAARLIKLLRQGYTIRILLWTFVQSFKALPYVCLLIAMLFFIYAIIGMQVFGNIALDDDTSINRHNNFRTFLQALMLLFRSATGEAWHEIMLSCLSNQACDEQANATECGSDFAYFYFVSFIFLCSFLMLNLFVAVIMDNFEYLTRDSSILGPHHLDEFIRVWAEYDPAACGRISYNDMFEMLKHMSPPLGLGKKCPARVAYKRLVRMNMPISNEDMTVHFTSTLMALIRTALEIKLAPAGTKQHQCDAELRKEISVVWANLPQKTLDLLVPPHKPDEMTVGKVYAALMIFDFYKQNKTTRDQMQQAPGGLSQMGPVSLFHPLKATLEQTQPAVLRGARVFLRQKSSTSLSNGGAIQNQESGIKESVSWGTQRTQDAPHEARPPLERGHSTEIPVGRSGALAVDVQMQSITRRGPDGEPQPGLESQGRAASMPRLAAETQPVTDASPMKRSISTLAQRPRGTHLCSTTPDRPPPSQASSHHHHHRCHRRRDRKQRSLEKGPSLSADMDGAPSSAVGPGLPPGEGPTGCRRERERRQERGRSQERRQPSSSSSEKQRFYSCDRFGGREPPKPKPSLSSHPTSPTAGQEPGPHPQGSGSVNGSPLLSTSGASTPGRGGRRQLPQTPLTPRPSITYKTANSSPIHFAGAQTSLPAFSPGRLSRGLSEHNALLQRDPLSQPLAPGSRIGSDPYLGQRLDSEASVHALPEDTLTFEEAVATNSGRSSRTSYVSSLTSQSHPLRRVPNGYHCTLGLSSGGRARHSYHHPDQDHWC
T1 sequence (P54284 whole entry partner): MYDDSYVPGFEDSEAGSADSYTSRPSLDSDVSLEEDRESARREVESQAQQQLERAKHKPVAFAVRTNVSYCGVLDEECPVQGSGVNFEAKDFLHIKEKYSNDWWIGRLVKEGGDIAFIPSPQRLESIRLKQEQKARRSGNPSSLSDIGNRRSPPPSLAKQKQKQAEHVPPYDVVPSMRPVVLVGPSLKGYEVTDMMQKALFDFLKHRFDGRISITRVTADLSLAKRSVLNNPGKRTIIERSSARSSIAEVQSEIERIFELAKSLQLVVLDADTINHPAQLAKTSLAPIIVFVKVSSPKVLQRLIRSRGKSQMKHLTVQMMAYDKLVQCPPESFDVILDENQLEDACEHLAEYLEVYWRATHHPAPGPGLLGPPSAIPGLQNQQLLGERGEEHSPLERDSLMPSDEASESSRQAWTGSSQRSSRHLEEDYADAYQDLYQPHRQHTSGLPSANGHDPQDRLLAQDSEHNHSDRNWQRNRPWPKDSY
T1 sequence (P54289 25-956 partner limits assumed): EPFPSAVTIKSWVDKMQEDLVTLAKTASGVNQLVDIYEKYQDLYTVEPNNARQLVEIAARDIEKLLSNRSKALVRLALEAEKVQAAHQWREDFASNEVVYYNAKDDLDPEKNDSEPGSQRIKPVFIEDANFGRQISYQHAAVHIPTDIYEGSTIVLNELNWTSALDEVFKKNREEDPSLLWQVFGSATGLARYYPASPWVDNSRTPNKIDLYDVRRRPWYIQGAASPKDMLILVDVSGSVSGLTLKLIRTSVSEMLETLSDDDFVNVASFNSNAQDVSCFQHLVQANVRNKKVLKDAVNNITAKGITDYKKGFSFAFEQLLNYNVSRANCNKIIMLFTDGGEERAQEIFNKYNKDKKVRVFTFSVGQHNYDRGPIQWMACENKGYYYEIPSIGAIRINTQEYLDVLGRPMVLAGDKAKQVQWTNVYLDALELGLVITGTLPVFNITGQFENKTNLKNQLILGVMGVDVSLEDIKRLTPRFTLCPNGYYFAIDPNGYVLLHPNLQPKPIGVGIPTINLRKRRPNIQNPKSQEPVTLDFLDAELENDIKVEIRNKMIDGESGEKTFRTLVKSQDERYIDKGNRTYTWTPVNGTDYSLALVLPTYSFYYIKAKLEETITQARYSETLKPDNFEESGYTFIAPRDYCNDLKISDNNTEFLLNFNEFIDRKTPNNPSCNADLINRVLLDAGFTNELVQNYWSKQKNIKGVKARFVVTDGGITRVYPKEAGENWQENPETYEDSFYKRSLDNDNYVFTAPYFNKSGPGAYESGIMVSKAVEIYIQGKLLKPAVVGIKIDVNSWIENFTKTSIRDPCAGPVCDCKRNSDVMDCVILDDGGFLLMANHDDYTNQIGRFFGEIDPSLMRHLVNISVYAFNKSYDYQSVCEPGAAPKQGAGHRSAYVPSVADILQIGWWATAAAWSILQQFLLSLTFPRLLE
T1 sequence (P54289 957-1103 partner limits assumed): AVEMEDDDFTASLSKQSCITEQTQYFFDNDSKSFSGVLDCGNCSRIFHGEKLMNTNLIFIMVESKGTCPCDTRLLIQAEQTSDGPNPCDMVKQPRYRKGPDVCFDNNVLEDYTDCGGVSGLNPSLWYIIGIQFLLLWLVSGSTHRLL

Turning to `COc1ncccc1-c1nc(C2CC(C)(C)OC(C)(C)C2)c(Cl)n1-c1ccc(C#N)cc1` [Compound 91, 4-(5-chloro-2-(2-methoxypyridin-3-yl)-4-(2,2,6,6-tetramethyltetrahydro-2H-pyran-4-yl)-1H-imidazol-1-yl)benzonitrile], at human N-type Ca channel [1] (setting [3]), the concentration for half-maximal inhibition (IC50) was 1430 nM. The figures for the inhibition at 10 µM on human N-type Ca channel [2] (setting [4]) and on human N-type Ca channel [2] (setting [5]) were 58% and 62%, respectively.
For the compound `COc1ncccc1-c1nc(C2CC(C)(C)OC(C)(C)C2)c(Cl)n1-c1ccc(F)cc1` [Compound 92, 3-(5-chloro-1-(4-fluorophenyl)-4-(2,2,6,6-tetramethyltetrahydro-2H-pyran-4-yl)-1H-imidazol-2-yl)-2-methoxypyridine], the IC50 on human N-type Ca channel [1] (setting [3]) was determined as 41 nM; against human N-type Ca channel [2] (setting [6]), 253 nM; at human N-type Ca channel [2] (setting [7]), 269 nM.
Regarding `COc1ncccc1-c1nc(C2CC(C)(C)OC(C)(C)C2)c(Cl)n1-c1ccc(Cl)cc1` [Compound 93, 3-(5-chloro-1-(4-chlorophenyl)-4-(2,2,6,6-tetramethyltetrahydro-2H-pyran-4-yl)-1H-imidazol-2-yl)-2-methoxypyridine], the IC50 on human N-type Ca channel [1] is 150 nM; against human N-type Ca channel [2] (setting [8]), 6500 nM; on human N-type Ca channel [2] (setting [9]) it was 1800 nM.
`COc1ccccc1-c1nc(C2CC(C)(C)OC(C)(C)C2)cn1S(=O)(=O)C(F)(F)F` [Compound 94, 2-(2-methoxyphenyl)-4-(2,2,6,6-tetramethyltetrahydro-2H-pyran-4-yl)1((trifluoromethyl)sulfonyl)-1H-imidazole]: the IC50 at human N-type Ca channel [1] (setting [3]) is 551 nM; at human N-type Ca channel [2] (setting [10]), greater than 1000 nM; at human N-type Ca channel [2] (setting [11]), greater than 1000 nM.
On to `COc1ccccc1-c1nc(C2CC(C)(C)OC(C)(C)C2)cn1S(=O)(=O)C1CC1` [Compound 95, 1-(cyclopropylsulfonyl)-2-(2-methoxyphenyl)-4-(2,2,6,6-tetramethyltetrahydro-2H-pyran-4-yl)-1H-imidazole], for which the IC50 was 10000 nM on human N-type Ca channel [1] (setting [3]), greater than 1000 nM at human N-type Ca channel [2] (setting [10]) and greater than 1000 nM at human N-type Ca channel [2] (setting [11]).
For the compound `COc1ccccc1-c1nc(C2CC(C)(C)OC(C)(C)C2)cn1S(=O)(=O)CC(C)C` [Compound 96, 1-(isobutylsulfonyl)-2-(2-methoxyphenyl)-4-(2,2,6,6-tetramethyltetrahydro-2H-pyran-4-yl)-1H-imidazole], the IC50 on human N-type Ca channel [1] was 768 nM; against human N-type Ca channel [2] (setting [9]) it was 5400 nM.
For the compound `COc1ccccc1-c1nc(C2CC(C)(C)OC(C)(C)C2)cn1S(=O)(=O)c1ccc(Cl)cc1` [Compound 97, 1-((4-chlorophenyl)sulfonyl)-2-(2-methoxyphenyl)-4-(2,2,6,6-tetramethyltetrahydro-2H-pyran-4-yl)-1H-imidazole], the 50% inhibitory concentration (IC50) on human N-type Ca channel [1] (setting [3]) is 515 nM; against human N-type Ca channel [2] (setting [9]) it was 3080 nM.
As to `COc1ccccc1-c1nc(C2CC(C)(C)OC(C)(C)C2)cn1S(=O)(=O)c1ccc(F)cc1` [Compound 98, 1-((4-fluorophenyl)sulfonyl)-2-(2-methoxyphenyl)-4-(2,2,6,6-tetramethyltetrahydro-2H-pyran-4-yl)-1H-imidazol,], the IC50 was determined as 692 nM on human N-type Ca channel [1] (setting [3]), 9020 nM at human N-type Ca channel [2] (setting [8]) and 3600 nM at human N-type Ca channel [2] (setting [9]).
As to `COc1ccccc1-c1nc(C2CC(C)(C)OC(C)(C)C2)cn1Cc1ccc(C#N)cc1` [Compound 99, 4-((2-(2-methoxyphenyl)-4-(2,2,6,6-tetramethyltetrahydro-2H-pyran-4-yl)-1H-imidazol-1-yl)methyl)benzonitrile], the values for the IC50 at human N-type Ca channel [1] (setting [3]), on human N-type Ca channel [2] (setting [10]) and at human N-type Ca channel [2] (setting [11]) were 10900 nM, greater than 1000 nM and greater than 1000 nM, respectively.
For `COc1ccccc1-c1nc(C2CC(C)(C)OC(C)(C)C2)cn1Cc1cccc(C#N)c1` [Compound 101, 3-((2-(2-methoxyphenyl)-4-(2,2,6,6-tetramethyltetrahydro-2H-pyran-4-yl)-1H-imidazol-1-yl)methyl) benzonitrile], the figures for the IC50 at human N-type Ca channel [1] (setting [3]), at human N-type Ca channel [2] (setting [6]) and on human N-type Ca channel [2] (setting [11]) were 3580 nM, greater than 1000 nM and greater than 1000 nM, respectively.
As to `COc1ccccc1-c1nc(C2(O)CC(C)(C)OC(C)(C)C2)cn1-c1ccc(Cl)cc1` [Compound 102, 4-(1-(4-chlorophenyl)-2-(2-methoxyphenyl)-1H-imidazol-4-yl)-2,2,6,6-tetramethyltetrahydro-2H-pyran-4-ol], the IC50 at human N-type Ca channel [1] (setting [3]) turned out to be 37 nM; against human N-type Ca channel [2] (setting [9]), 1740 nM. Besides, at human N-type Ca channel [2] (setting [4]), the inhibition at 10 µM was 48%.
As for `COc1ccncc1-c1nc(C2(O)CC(C)(C)OC(C)(C)C2)cn1-c1ccc(Cl)cc1` [Compound 103, 4-(1-(4-chlorophenyl)-2-(4-methoxypyridin-3-yl)-1H-imidazol-4-yl)-2,2,6,6-tetramethyltetrahydro-2H-pyran-4-ol], the IC50 on human N-type Ca channel [1] (setting [3]) is 367 nM; against human N-type Ca channel [2] (setting [8]), 4300 nM. The inhibition at 10 µM at human N-type Ca channel [2] (setting [5]) was determined as 31%.
As to `COc1ncccc1-c1nc(C2(O)CC(C)(C)OC(C)(C)C2)cn1-c1ccc(Cl)cc1` [Compound 105, 4-(1-(4-chlorophenyl)-2-(2-methoxypyridin-3-yl)-1H-imidazol-4-yl)-2,2,6,6-tetramethyltetrahydro-2H-pyran-4-ol], the IC50 is 300 nM at human N-type Ca channel [1] (setting [3]); 964 nM on human N-type Ca channel [2] (setting [6]); 8300 nM on human N-type Ca channel [2] (setting [8]); 3820 nM at human N-type Ca channel [2] (setting [9]); greater than 1000 nM at human N-type Ca channel [2] (setting [11]).
Consider `COc1ccccc1-c1nc(C2(O)CC(C)(C)OC(C)(C)C2)cn1-c1ccc(F)c(F)c1` [Compound 107, 4-(1-(3,4-difluorophenyl)-2-(2-methoxyphenyl)-1H-imidazol-4-yl)-2,2,6,6-tetramethyltetrahydro-2H-pyran-4-ol], for which the results for the IC50 at human N-type Ca channel [1] (setting [3]), on human N-type Ca channel [2] (setting [8]) and against human N-type Ca channel [2] (setting [9]) were 430 nM, 3530 nM and 2420 nM, respectively.
Consider `COc1ncccc1-c1nc(C2(O)CC(C)(C)OC(C)(C)C2)cn1-c1ccc(F)c(F)c1` [Compound 108, 4-(1-(3,4-difluorophenyl)-2-(2-methoxypyridin-3-yl)-1H-imidazol-4-yl)-2,2,6,6-tetramethyltetrahydro-2H-pyran-4-ol], for which the 50% inhibitory concentration (IC50) was determined as 394 nM on human N-type Ca channel [1] (setting [3]), 5800 nM against human N-type Ca channel [2] (setting [8]) and 7400 nM on human N-type Ca channel [2] (setting [9]).
On to `COc1ccccc1-c1nc(C2(O)CC(C)(C)OC(C)(C)C2)cn1-c1ccc(C(F)(F)F)nc1` [Compound 109, 4-(2-(2-methoxyphenyl)-1-(6-(trifluoromethyl)pyridin-3-yl)-1H-imidazol-4-yl)-2,2,6,6-tetramethyltetrahydro-2H-pyran-4-ol], for which the IC50 stood at 322 nM on human N-type Ca channel [1] (setting [3]), 4500 nM against human N-type Ca channel [2] (setting [8]) and 7900 nM against human N-type Ca channel [2] (setting [9]).
As to `COc1ncccc1-c1nc(C2(O)CC(C)(C)OC(C)(C)C2)cn1-c1ccc(F)c(Cl)c1` [Compound 110, 4-(1-(3-chloro-4-fluorophenyl)-2-(2-methoxypyridin-3-yl)-1H-imidazol-4-yl)-2,2,6,6-tetramethyltetrahydro-2H-pyran-4-ol], the IC50 on human N-type Ca channel [1] (setting [3]) was 385 nM. Further, the inhibition at 10 µM at human N-type Ca channel [2] (setting [4]) is 44%; on human N-type Ca channel [2] (setting [5]), 30%.
`COc1ccccc1-c1nc(C2(O)CC(C)(C)OC(C)(C)C2)cn1-c1ccc(F)c(Cl)c1` [Compound 111, 4-(1-(3-chloro-4-fluorophenyl)-2-(2-methoxyphenyl)-1H-imidazol-4-yl)-2,2,6,6-tetramethyltetrahydro-2H-pyran-4-ol]: the IC50 on human N-type Ca channel [1] (setting [3]) came out at 257 nM; at human N-type Ca channel [2] (setting [9]) it was 2500 nM. At human N-type Ca channel [2] (setting [4]), the inhibition at 10 µM is 62%.
Consider `COc1ccccc1-c1nc(C2(O)CC(C)(C)OC(C)(C)C2)cn1-c1ccc(Cl)c(F)c1` [Compound 112, 4-(1-(4-chloro-3-fluorophenyl)-2-(2-methoxyphenyl)-1H-imidazol-4-yl)-2,2,6,6-tetramethyltetrahydro-2H-pyran-4-ol], for which the half-inhibitory concentration (IC50) on human N-type Ca channel [1] (setting [3]) was 41 nM; on human N-type Ca channel [2] (setting [8]) it was 2500 nM; on human N-type Ca channel [2] (setting [9]), 3000 nM.
Turning to `COc1ncccc1-c1nc(C2(O)CC(C)(C)OC(C)(C)C2)cn1-c1ccc(Cl)c(F)c1` [Compound 113, 4-(1-(4-chloro-3-fluorophenyl)-2-(2-methoxypyridin-3-yl)-1H-imidazol-4-yl)-2,2,6,6-tetramethyltetrahydro-2H-pyran-4-ol], the IC50 on human N-type Ca channel [1] (setting [3]) worked out at 83 nM; at human N-type Ca channel [2] (setting [8]), 4400 nM; at human N-type Ca channel [2] (setting [9]) it was 7800 nM.
For `CCOc1ncccc1-c1nc(C2(O)CC(C)(C)OC(C)(C)C2)cn1-c1ccc(Cl)cc1` [Compound 114, 4-(1-(4-chlorophenyl)-2-(2-ethoxypyridin-3-yl)-1H-imidazol-4-yl)-2,2,6,6-tetramethyltetrahydro-2H-pyran-4-ol], the half-maximal inhibitory concentration (IC50) is 607 nM on human N-type Ca channel [1] (setting [3]), 668 nM against human N-type Ca channel [2] (setting [6]) and greater than 1000 nM at human N-type Ca channel [2] (setting [7]).
With `COc1ccccc1-c1nc(C2(O)CC(C)(C)OC(C)(C)C2)cn1-c1ccc(F)c(C#N)c1` [Compound 117, 2-fluoro-5-(4-(4-hydroxy-2,2,6,6-tetramethyltetrahydro-2H-pyran-4-yl)-2-(2-methoxyphenyl)-1H-imidazol-1-yl)benzonitrile], the IC50 on human N-type Ca channel [1] (setting [3]) was 1440 nM. The inhibition at 10 µM on human N-type Ca channel [2] (setting [4]) was determined as 40%; at human N-type Ca channel [2] (setting [5]), 25%.
For `COc1ccccc1-c1nc(C2(O)CC(C)(C)OC(C)(C)C2)cn1-c1ccc(C#N)c(F)c1` [Compound 118, 2-fluoro-4-(4-(4-hydroxy-2,2,6,6-tetramethyltetrahydro-2H-pyran-4-yl)-2-(2-methoxyphenyl)-1H-imidazol-1-yl)benzonitrile], the IC50 on human N-type Ca channel [1] (setting [3]) was determined as 150 nM; against human N-type Ca channel [2] (setting [8]) it was 8100 nM.
